According to patent publication US20240226107A1, “UBIQUITIN-SPECIFIC PROTEASE 1 (USP1) INHIBITOR” (SIMCERE ZAIMING PHARMACEUTICAL CO., LTD., priority 2021, published 2024):
≈ marks a conversion by molar mass, not a printed value.

Columns and labels:
[1] = Solubility (PBS pH 7.4) of compounds from DMSO solution; format: physicochemical; details: aqueous buffer, kinetic from dmso stock, 10 mM DMSO solution into PBS pH 7.4, 25° C., read-out: Calculated solubility
Procedure: The solubility (PBS pH 7.4) of a compound to be tested was determined by LC/MS/MS. 6 μL of 10 mM DMSO solution of the compound to be tested was mixed with 194 μL of DMSO to prepare 300 μM compound solution. In 490 μL of water and acetonitrile (1:1) containing an internal standard, 5 μL of the solution and 5 μL of PBS pH 7.4 solution were mixed to prepare 3 μM standard concentration solution of the sample to be tested. The dilution factor of the standard solution can be adjusted according to the strength of response signals in LC/MS.
To 485 μL of PBS pH 7.4 solution, 15 μL of 10 mM DMSO solution of the compound to be tested was added. […] After shaking, the stir bar was removed, and the sample was transferred to a filter plate and filtered using a vacuum manifold. In 490 μL of water and acetonitrile (1:1) containing an internal standard, 5 μL of filtrate and 5 μL of PBS pH 7.4 solution were mixed to prepare a solution to be tested. The dilution factor can be adjusted according to the solubility value and the strength of response signals in LC/MS.
The resulting samples were determined by LC/MS/MS. The sample solubility was calculated from peak areas of the solution of the compound to be tested and the standard concentration solution, according to the following equation:
[formula] • [Sample] is the solubility of the sample to be tested; • Area ratiosample is the ratio of the peak area of sample in the sample to be tested to the peak area of the internal standard; • INJ VOL STD is the injection volume of the standard concentration solution; • DFsample is the dilution factor of the solution of the sample to be tested; • [STD] is the concentration of the standard concentration solution; • INJ VOLsample is the injection volume of the solution of the sample to be tested; and • Area ratio STD is the ratio of the peak area of sample in the standard concentration solution to the peak area of the internal standard.

[2] = test system: MDA-MB-436 cells;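 note: MDA-MB-436 proliferation over 7 days with compound, viability read as ATP luminescence (CellTiter-Glo), inhibition relative to DMSO-only wells, day 0 signal as background, GI50 from four-parameter fit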
[3] = molecular target: USP1 (Recombinant Human His6-USP1/His6-UAF1 Complex Protein) (Homo sapiens (Human), UniProt O94782); experiment: In vitro activity assay for USP1 (Ub-CHOP2-Reporter deubiquitination assay); format: biochemical; details: 0.5 h incubation at room temperature, read-out: In vitro inhibitory activity of USP1 IC50
Procedure: The assay kit (Ub-CHOP2-Reporter Deubiquitination Assay Kit) was purchased from Lifesensors, with Cat. No. of PR1101. The assay kit was subpackaged and stored at −80° C.
Each compound to be tested was dissolved with DMSO to 10 mM. The compound and pure DMSO (with a total volume of 50 nL) were loaded to each well of the 384-well plate by using an ECHO instrument to obtain gradient-diluted sample concentrations at different ratios. The enzyme was diluted with a freshly prepared reaction solution (20 mM Tris-HCl (pH 8.0), 2 mM CaCl2, 2 mM β-mercaptoethanol, 0.05% CHAPS, and ddH2O). To each well, 5 μL of diluted enzyme reaction solution was added, then the plate was centrifuged and oscillated to mix the enzyme and the compound, and the mixture was centrifuged again and placed on ice. The kit reporter system and the substrate were diluted with the reaction solution, then 5 μL of diluted liquid was added to each well, and mixed by centrifugation. The mixture was incubated at room temperature for 0.5 h. […] The inhibitory activity (IC50 values) of the compound on enzyme activity was calculated by using a four-parameter Logistic Model. […] A, B, C, and D are four parameters.

Sequence of USP1 (Recombinant Human His6-USP1/His6-UAF1 Complex Protein) (O94782 whole entry): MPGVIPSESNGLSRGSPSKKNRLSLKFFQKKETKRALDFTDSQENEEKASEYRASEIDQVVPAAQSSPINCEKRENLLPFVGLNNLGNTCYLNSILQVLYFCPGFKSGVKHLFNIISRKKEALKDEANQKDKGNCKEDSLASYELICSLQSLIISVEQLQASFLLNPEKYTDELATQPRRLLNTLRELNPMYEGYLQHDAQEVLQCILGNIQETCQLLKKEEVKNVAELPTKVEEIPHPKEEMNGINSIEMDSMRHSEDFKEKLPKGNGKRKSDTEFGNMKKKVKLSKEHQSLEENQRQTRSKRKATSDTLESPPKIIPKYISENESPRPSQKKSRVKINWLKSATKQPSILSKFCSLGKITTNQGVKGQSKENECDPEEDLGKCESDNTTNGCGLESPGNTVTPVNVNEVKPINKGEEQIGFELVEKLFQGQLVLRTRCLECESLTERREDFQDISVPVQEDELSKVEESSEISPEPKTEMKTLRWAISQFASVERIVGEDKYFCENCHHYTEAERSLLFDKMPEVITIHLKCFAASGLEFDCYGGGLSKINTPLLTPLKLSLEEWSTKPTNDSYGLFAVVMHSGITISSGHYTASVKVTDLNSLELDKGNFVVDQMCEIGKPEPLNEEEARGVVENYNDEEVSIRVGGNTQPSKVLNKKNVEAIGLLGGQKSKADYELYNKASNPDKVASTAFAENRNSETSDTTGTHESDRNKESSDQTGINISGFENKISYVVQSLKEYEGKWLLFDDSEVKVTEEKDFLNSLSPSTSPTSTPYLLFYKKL
Sequence of USP1 (Recombinant Human His6-USP1/His6-UAF1 Complex Protein) (Q8TAF3 whole entry partner): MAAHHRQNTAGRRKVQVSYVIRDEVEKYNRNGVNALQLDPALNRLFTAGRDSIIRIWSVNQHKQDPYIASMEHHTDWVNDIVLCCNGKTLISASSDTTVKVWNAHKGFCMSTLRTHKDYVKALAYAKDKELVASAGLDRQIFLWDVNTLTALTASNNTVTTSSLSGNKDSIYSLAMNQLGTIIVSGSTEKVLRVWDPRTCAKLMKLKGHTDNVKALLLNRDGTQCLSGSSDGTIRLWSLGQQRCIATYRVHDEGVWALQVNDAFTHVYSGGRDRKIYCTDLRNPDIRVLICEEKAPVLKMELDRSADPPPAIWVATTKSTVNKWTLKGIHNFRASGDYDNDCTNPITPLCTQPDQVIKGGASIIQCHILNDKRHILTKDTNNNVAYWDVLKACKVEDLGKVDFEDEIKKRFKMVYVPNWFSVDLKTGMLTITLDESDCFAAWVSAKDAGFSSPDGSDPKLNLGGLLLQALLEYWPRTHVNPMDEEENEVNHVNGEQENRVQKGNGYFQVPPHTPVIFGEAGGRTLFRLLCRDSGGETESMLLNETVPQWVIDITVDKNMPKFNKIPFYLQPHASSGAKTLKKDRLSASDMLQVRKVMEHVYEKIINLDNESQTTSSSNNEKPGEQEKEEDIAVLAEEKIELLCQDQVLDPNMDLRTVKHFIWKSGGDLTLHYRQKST

solubility at 2 h [1] [µM]	GI50 [2] [nM]	IC50 [3] [nM]	Compound
284 (≈ 149 µg/mL)	1080	–	COc1ncnc(C2CC2)c1-c1ncc2c(n1)N(Cc1ccc(-c3nc(C(F)(F)F)cn3C)cn1)CCO2 [Compound 16]
228 (≈ 131 µg/mL)	86.2	23.6	COc1ncnc(C2CC2)c1-c1ncc2c(n1)N(Cc1ccc(-c3nc(C(F)(F)F)cn3C)cc1)CC(=O)N2C1CC1 [Compound 24, 2-(4-cyclopropyl-6-methoxypyrimidin-5-yl)-5-cyclopropyl-8-(4-(1-methyl-4-(trifluoromethyl)-1H-imidazol-2-yl)benzyl)-7,8-dihydropteridin-6(5H)-one]
–	81.8	36.9	COc1ncnc(C2CC2)c1-c1ncc2c(n1)N(Cc1ccc(-c3nc(C(F)(F)F)cn3C)c(F)c1)C(=O)OC2(C)CO (centres unmarked) [Compound 58, 7-(4-cyclopropyl-6-methoxypyrimidin-5-yl)-1-(3-fluoro-4-(1-methyl-4-(trifluoromethyl)-1H-imidazol-2-yl)benzyl)-4-(hydroxymethyl)-4-methyl-1,4-dihydro-2H-pyrimido[4,5-d][1,3]oxazin-2-one]
–	81.4	36.3	COc1ncnc(C2CC2)c1-c1ncc2nc(C)c(=O)n(Cc3ccc(-c4nc(C(F)(F)F)cn4C)cc3)c2n1 [Compound 61, 2-(4-cyclopropyl-6-methoxypyrimidin-5-yl)-6-methyl-8-(4-(1-methyl-4-(trifluoromethyl)-1H-imidazol-2-yl)benzyl)pteridin-7(8H)-one]
–	26.8	28.5	COc1ncnc(C2CC2)c1-c1ncc2c(n1)N(Cc1ccc(-c3nc(C(F)(F)F)cn3C)c(F)c1)CC(=O)N2C [Compound 65, 2-(4-cyclopropyl-6-methoxypyrimidin-5-yl)-5-methyl-8-(3-fluoro-4-(1-methyl-4-(trifluoromethyl)-1H-imidazol-2-yl)benzyl)-7,8-dihydropteridin-6(5H)-one]
–	53.1	96	COc1ncnc(C2CC2)c1-c1ncc2c(n1)N(Cc1ccc(-c3nc(C(F)(F)F)cn3C)cc1)CC(=O)N2C(C)C [Compound 78, 2-(4-cyclopropyl-6-methoxypyrimidin-5-yl)-8-(4-(1-methyl-4-(trifluoromethyl)-1H-imidazol-2-yl)benzyl)-5-isopropyl-7,8-dihydropteridin-6(5H)-one]
72 (≈ 38.7 µg/mL)	–	11.7	COc1ncnc(C2CC2)c1-c1ncc2c(n1)N(Cc1ccc(-c3nc(C(F)(F)F)cn3C)cc1)C(=O)OC2 [Compound 80, 7-(4-cyclopropyl-6-methoxypyrimidin-5-yl)-1-(4-(1-methyl-4-(trifluoromethyl)-1H-imidazol-2-yl)benzyl)-1,4-dihydro-2H-pyrimido[4,5-d][1,3]oxazin-2-one]
–	69.3	27.2	COc1ncnc(C2CC2)c1-c1ncc2c(n1)N(Cc1ccc(-c3nc(C(F)(F)F)cn3C)cc1)C(=O)OC2C (centres unmarked) [Compound 81, 7-(4-cyclopropyl-6-methoxypyrimidin-5-yl)-4-methyl-1-(4-(1-methyl-4-(trifluoromethyl)-1H-imidazol-2-yl)benzyl)-1,4-dihydro-2H-pyrimido[4,5-d][1,3]oxazin-2-one]
–	23	48.5	COc1ncnc(C2CC2)c1-c1ncc2c(n1)N(Cc1ccc(-c3nc(C(F)(F)F)cn3C)c(F)c1)CC(=S)N2C [Compound 83, 2-(4-cyclopropyl-6-methoxypyrimidin-5-yl)-8-(3-fluoro-4-(1-methyl-4-(trifluoromethyl)-1H-imidazol-2-yl)benzyl)-5-methyl-7,8-dihydropteridine-6(5H)-thione]

More lines, now with the values behind:

Compound	solubility at 2 h [1] [µM]	GI50 [2] [nM]	IC50 [3] [nM]
COc1ncnc(C2CC2)c1-c1ncc2c(n1)N(CC1CCN(c3nc(C(F)(F)F)cn3C)CC1)CCO2 [Compound 30, 2-(4-cyclopropyl-6-methoxypyrimidin-5-yl)-8-((1-(1-methyl-4-(trifluoromethyl)-1H-imidazol-2-yl)piperidin-4-yl)methyl)-7,8-dihydro-6H-pyrimido[5,4-b][1,4]oxazine]	225 (≈ 119 µg/mL)	161	44.7
CCN1C(=O)CN(Cc2ccc3c(c2)CCCn2cc(C(F)(F)F)nc2-3)c2nc(-c3c(OC)ncnc3C3CC3)ncc21 [Compound 46, 2-(4-cyclopropyl-6-methoxypyrimidin-5-yl)-5-ethyl-8-((2-(trifluoromethyl)-6,7-dihydro-5H-benzo[c]imidazo[1,2-a]azepin-9-yl)methyl)-7,8-dihydropteridin-6(5H)-one]	50 (≈ 29.5 µg/mL)	–	–
COc1ncnc(C2CC2)c1-c1ncc2c(n1)N(Cc1cc(F)c(-c3nc(C(F)(F)F)cn3C)c(F)c1)CCO2 [Compound 62]	–	12.3	9.8
COc1ncnc(C2CC2)c1-c1ncc2c(n1)N(Cc1cc(F)c(-c3nc(C(F)(F)F)cn3C)cc1F)CCO2 [Compound 63]	–	24.5	11.3
COc1ncnc(C2CC2)c1-c1ncc2c(n1)N(Cc1ccc(-c3nc(C(F)(F)F)cn3C(C)C)c(F)c1)CC(=O)N2C [Compound 67, 2-(4-cyclopropyl-6-methoxypyrimidin-5-yl)-5-methyl-8-(3-fluoro-4-(1-isopropyl-4-(trifluoromethyl)-1H-imidazol-2-yl)benzyl)-7,8-dihydropteridin-6(5H)-one]	–	17.3	16.8
CCn1cc(C(F)(F)F)nc1-c1ccc(CN2CC(=O)N(C)c3cnc(-c4c(OC)ncnc4C4CC4)nc32)cc1F [Compound 68, 2-(4-cyclopropyl-6-methoxypyrimidin-5-yl)-5-methyl-8-(3-fluoro-4-(1-ethyl-4-(trifluoromethyl)-1H-imidazol-2-yl)benzyl)-7,8-dihydropteridin-6(5H)-one]	–	27	12.1
COc1ncnc(C2CC2)c1-c1ncc2c(n1)N(Cc1ccc(-c3nc(C(F)(F)F)cn3C)c(F)c1)CC(=O)N2C1CC1 [Compound 71, 2-(4-cyclopropyl-6-methoxypyrimidin-5-yl)-8-(3-fluoro-4-(1-methyl-4-(trifluoromethyl)-1H-imidazol-2-yl)benzyl)-5-cyclopropyl-7,8-dihydropteridin-6(5H)-one]	–	74.1	71.6
CCn1cc(C(F)(F)F)nc1-c1ccc(CN2CC(=O)N(C3CC3)c3cnc(-c4c(OC)ncnc4C4CC4)nc32)cc1F [Compound 73, 2-(4-cyclopropyl-6-methoxypyrimidin-5-yl)-8-(3-fluoro-4-(1-ethyl-4-(trifluoromethyl)-1H-imidazol-2-yl)benzyl)-5-cyclopropyl-7,8-dihydropteridin-6(5H)-one]	–	48	45.2
COc1ncnc(C2CC2)c1-c1ncc2c(n1)N(Cc1ccc(-c3nc(C(F)(F)F)cn3C3CC3)c(F)c1)CC(=O)N2C1CC1 [Compound 77, 2-(4-cyclopropyl-6-methoxypyrimidin-5-yl)-8-(3-fluoro-4-(1-cyclopropyl-4-(trifluoromethyl)-1H-imidazol-2-yl)benzyl)-5-cyclopropyl-7,8-dihydropteridin-6(5H)-one]	–	48.7	18.4
COc1ncnc(C2CC2)c1-c1ncc2c(n1)N(Cc1ccc3c(c1)C(C)CCn1cc(C(F)(F)F)nc1-3)CC(=O)N2C (centres unmarked) [Compound 79, 2-(4-cyclopropyl-6-methoxypyrimidin-5-yl)-5-methyl-8-((7-methyl-2-(trifluoromethyl)-6,7-dihydro-5H-benzo[c]imidazo[1,2-a]azepin-9-yl)methyl)-7,8-dihydropteridin-6(5H)-one]	–	80.2	95.2
COc1ncnc(C2CC2)c1-c1ncc2c(n1)N(Cc1ccc3c(c1)CCCn1cc(C(F)(F)F)nc1-3)CC(=S)N2C [Compound 82, 2-(4-cyclopropyl-6-methoxypyrimidin-5-yl)-5-methyl-8-((2-(trifluoromethyl)-6,7-dihydro-5H-benzo[c]imidazo[1,2-a]azepin-9-yl)methyl)-7,8-dihydropteridine-6(5H)-thione]	–	35.8	59.3
